Data: patent publication US20230339977A1, “SUBSTITUTED HETEROARYL COMPOUND, AND COMPOSITION AND APPLICATION THEREOF” (SUNSHINE LAKE PHARMA CO., LTD., priority 2020, published 2023)

Assays:
TF-1 cells = experiment: Inhibitory effect on TF-1 cell proliferation; format: cell-based; conditions: Homo sapiens, alamar blue, read-out: IC50 (nM) TF-1 (h)
Protocol: TF-1 cells were seeded in a 96-well culture plate at a density of 20,000/well with 80 µL per well, the blank well was an equal amount of complete medium, and 10 µL of the compound dilution solution was added to the 96-well plate B1-11, C1-11, E1-11, F1-11, positive and negative wells were added with 5% DMSO medium equal to the volume of the compound, and the final concentration of DMSO was 0.5%. After 30 min, GM-CSF with a final concentration of 2 ng/mL was added to rows B, C, and D (positive wells), and the remaining wells (rows E, F, and G) were added with the same volume of medium as cytokines (negative wells). After incubation for 44 h at 37° C. in 5% CO2, alamar blue was added, the plate was incubated for 4 h, the fluorescence intensity of each well under the conditions of […], 580 nm wavelength was measured, and the IC50 value was calculated.
CTLL-2, P-STAT3 and TF-1 cells were seeded in a 96-well culture plate at a density of 20,000/well with 90 µL per well, and the blank well was an equal amount of complete medium. 10 ul of different compound dilutions were added to each plate row BC, DE, and FG, and 5% DMSO medium with equal volume of the compound was added to positive wells and negative wells, and the final concentration of DMSO was 0.5%. […]

[1] = Stability in human liver microsomes; format: in vitro ADME
Protocol: The stability of the compounds of the present invention in human and rat liver microsomes can be tested by the following two methods:
Human or rat liver microsomes were incubated in polypropylene tubes in duplicate wells. A typical incubation mixture included human or rat liver microsomes (0.5 mg protein/mL), target compound (5 µM), and a total volume of 200 µL of NADPH (1.0 mM) potassium phosphate buffer (PBS, 100 mM, pH 7.4), the compound was dissolved in DMSO and diluted with PBS, the final concentration of the DMSO solution was 0.05%. Human or rat liver microsomes were incubated at 37° C. in an air-connected water bath. After pre-incubation for 3 minutes, […] was added to start the reaction. The same volume of ice-cold acetonitrile was added to terminate the reaction at different time points (0, 5, 10, 15, 30 and 60 min). Samples were stored at -80° C. until LC/MS/MS analysis.
The linear concentration range of each target compound was determined, and then, the concentration of the target compounds in the human or rat liver microsomes incubation mixture was determined by LC/MS/MS method.
Parallel incubations were performed using denatured microsomes as a negative control and dextromethorphan (70 µM) as a positive control. Negative control was incubated at 37° C., the reaction was terminated at different time points (0, 15 and 60 minutes); positive control was incubated at 37° C., the reaction was terminated at different time points (0, 5, 10, 15, 30 and 60 minutes). Positive and negative control samples were used in each assay to ensure the integrity of the microsomal incubation system.
In addition, the stability data of the compounds of the present invention in human or rat liver microsomes can also be obtained from the following tests:
Human or rat liver microsomes were incubated in polypropylene tubes in duplicate wells. A typical incubation mixture included human or rat liver microsomes (final concentration: 0.5 mg protein/mL), target compound (final concentration: 1.5 µM) and a total volume of 30 µL of K-buffer solution (containing 1.0 mM EDTA, 100 mM, pH 7.4). Compounds were dissolved in DMSO and diluted with K-buffer solution, the final concentration of DMSO was 0.2%. […]
For each reaction, in vivo intrinsic hepatic clearance CLint is extrapolated by plotting the compound concentration (expressed as a percentage) in human or rat liver microsomal incubations as a percentage relative to time zero (ref.: Naritomi Y, Terashita S, Kimura S, Suzuki A, Kagayama A, Sugiyama Y. Prediction of human hepatic clearance from in vivo animal experiments and in vitro metabolic studies with liver microsomes from animals and humans. Drug Metabolism and Disposition 2001, 29: 1316-1324.).

JAK1/TYK2 = experiment: Cell level activity test of JAK1/TYK2 (IFN-α induced STAT3 phosphorylation in PBMC); format: cell-based; conditions: Homo sapiens; P-STAT3 by ELISA in PBMC, compound 1 h, IFN-α 5000 U/mL 15 min; read-out: IC50 nM (JAK 1 /TYK2)
Protocol: IFN-α can induce the phosphorylation of STAT3 downstream of JAK1/TYK2 in PBMC, and by measuring the level of STAT3 phosphorylation, the activity of the compound on JAK1/TYK2 at the cell level can be reflected.
Whole blood was collected from healthy subjects, anticoagulated with heparin sodium, and PBMC (human peripheral blood mononuclear cells) were extracted. PBMC were seeded in a 96-well culture plates at a density of 1*106/well. Positive wells and negative wells were added with the same volume of DMSO as the compound, and the final concentration of DMSO was 0.5%. The compounds were incubated with the cells at 37° C. for 1 h, and then stimulated by adding IFN-α at a final concentration of 5000 U/mL, an equal volume of medium was added to the negative wells, and incubated for 15 min. The cells were centrifuged to remove the supernatant, then lysed, and P-STAT3 was measured according to the instructions of the ELISA kit, the absorbance was read at 450 nm, and the IC50 value or inhibition rate was calculated.

**Q.** Which results are given for `CC(=O)Nc1cc2c(-c3ccc4c(n3)C3(CCOC3)OC4)cn(C)c2cn1` (stereo not shown) [Example 2, N-(3-(4,5-Dihydro-2H,5′H-Spiro[Furan-3,7′-Furo[3,4-b]Pyridin]-2′-yl)-1-Methyl-1H-Pyrrolo[2,3-c]Pyridin-5-yl)Acetamide]?
**A.** IC50 (TF-1 cells): 7560 nM; half-life ([1]; human, pH 7.4, read-out: Human T½): 48.2 min; CLint scaled ([1]; pH 7.4, in vivo intrinsic hepatic clearance extrapolated): 36 mL/min/kg; IC50 (JAK1/TYK2): 95.8 nM
